Laboratory results reported in ChEMBL document CHEMBL1201862, “PubChem BioAssay data set” (2004).
Activity calls are given as the source filed them.

Columns and labels:
[1] = target: T1, Serine/threonine-protein phosphatase (Candida dubliniensis (strain CD36 / CBS 7987 / NCPF 3949 / NRRLY-17841) (Yeast), UniProt B9W6M3); assay: calcineurin pathway inhibitors in yeast reporter, dose response, S. cerevisiae, CDRE-lacZ, luminescence, secondary (AID 2388); format: functional, cell-based;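 also: yeast reporter cells carrying a calcineurin-responsive lacZ construct stimulated with calcium chloride; luminescent beta-galactosidase reporter signal in whole cells rather than isolated phosphatase activity; potency for inhibition where a drop in reporter signal means calcineurin blockade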
T1 sequence (B9W6M3 whole entry): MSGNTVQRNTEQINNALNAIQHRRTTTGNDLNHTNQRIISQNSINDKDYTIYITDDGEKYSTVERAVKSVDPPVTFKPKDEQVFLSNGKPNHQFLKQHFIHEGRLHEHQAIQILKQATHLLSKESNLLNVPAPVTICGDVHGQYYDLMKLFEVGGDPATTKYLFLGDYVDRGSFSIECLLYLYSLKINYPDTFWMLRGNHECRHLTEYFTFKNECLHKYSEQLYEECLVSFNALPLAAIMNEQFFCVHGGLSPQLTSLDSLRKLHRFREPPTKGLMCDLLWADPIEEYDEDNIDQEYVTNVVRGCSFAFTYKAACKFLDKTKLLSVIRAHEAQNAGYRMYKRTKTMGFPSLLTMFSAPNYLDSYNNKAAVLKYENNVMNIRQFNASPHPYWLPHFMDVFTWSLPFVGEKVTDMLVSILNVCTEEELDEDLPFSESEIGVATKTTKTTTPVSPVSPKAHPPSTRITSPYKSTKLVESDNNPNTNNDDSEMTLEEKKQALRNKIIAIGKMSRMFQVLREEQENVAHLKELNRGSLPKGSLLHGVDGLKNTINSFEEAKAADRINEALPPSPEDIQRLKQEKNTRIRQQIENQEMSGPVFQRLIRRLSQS

[2] = C. albicans growth with fluconazole, confirmation, fluorescence, retest (AID 2467); format: functional, cell-based
[3] = NIH-3T3 fibroblast cytotoxicity, dose response, cytotoxicity control, cell-based, fluorescence, Alamar Blue, secondary assay (AID 2327); format: functional;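 also: NIH-3T3 mouse fibroblasts cultured with fluconazole at 8 µg/mL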
[4] = target: ATP-dependent molecular chaperone HSP82 (Candida albicans (strain WO-1) (Yeast), UniProt C4YTQ8); assay: loss of DOC-induced GRE-beta-galactosidase reporter signal, dose response, Hsp90 inhibitor project, S. cerevisiae, luminescence (AID 2400); format: functional, cell-based;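 also: beta-galactosidase luminescence from glucocorticoid response element reporter as proxy for Hsp90 function; inhibitor potency where signal loss means Hsp90 inhibition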
[5] = target: Peroxisome proliferator-activated receptor gamma/Nuclear receptor coactivator 1 (Homo sapiens, UniProt P37231); assay: (§1) TR-FRET dose response biochemical High Throughput Screening assay for agonists of the steroid receptor coactivator 1 (SRC-1) recruitment by the peroxisome proliferator-activated receptor gamma (PPAR gamma): non-selective agonists. [Related pubchem assays (depositor defined):AID1300, AID1808, AID504735, AID631]; format: protein assay
[6] = target: Peroxisome proliferator-activated receptor gamma/Nuclear receptor coactivator 3 (Homo sapiens, UniProt P37231); assay: as §1, with “3 (SRC-3)” for “1 (SRC-1)”, “assays: 1301 (Confirmation screen.), 1048 (Primary screen.)]” for “assays (depositor defined):AID1300, AID1808, AID504735, AID631]”; format: functional
[7] = target: Peroxisome proliferator-activated receptor gamma/Nuclear receptor coactivator 2 (Homo sapiens, UniProt P37231); assay: TR-FRET dose response biochemical High Throughput Screening assay for agonists of the steroid receptor coactivator 2 (SRC-2) recruitment by the peroxisome proliferator-activated receptor gamma (PPAR gamma): non-selective agonists. [Related pubchem assays: 1297, 1032 ]; format: functional
[8] = target: T2, Heat shock factor protein 1 (Mus musculus, UniProt P38532); assay: inhibition of MG132-induced HSE-luciferase signal, confirmation, cell-based, NIH3T3, luminescence, dose retest (AID 2382); format: functional;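 also: NIH3T3 fibroblasts with HSF1-driven luciferase reporter stressed by proteasome inhibitor MG132; luminescence from HSF1-driven luciferase expression after 8 hours of MG132 stress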
T2 sequence (P38532 whole entry): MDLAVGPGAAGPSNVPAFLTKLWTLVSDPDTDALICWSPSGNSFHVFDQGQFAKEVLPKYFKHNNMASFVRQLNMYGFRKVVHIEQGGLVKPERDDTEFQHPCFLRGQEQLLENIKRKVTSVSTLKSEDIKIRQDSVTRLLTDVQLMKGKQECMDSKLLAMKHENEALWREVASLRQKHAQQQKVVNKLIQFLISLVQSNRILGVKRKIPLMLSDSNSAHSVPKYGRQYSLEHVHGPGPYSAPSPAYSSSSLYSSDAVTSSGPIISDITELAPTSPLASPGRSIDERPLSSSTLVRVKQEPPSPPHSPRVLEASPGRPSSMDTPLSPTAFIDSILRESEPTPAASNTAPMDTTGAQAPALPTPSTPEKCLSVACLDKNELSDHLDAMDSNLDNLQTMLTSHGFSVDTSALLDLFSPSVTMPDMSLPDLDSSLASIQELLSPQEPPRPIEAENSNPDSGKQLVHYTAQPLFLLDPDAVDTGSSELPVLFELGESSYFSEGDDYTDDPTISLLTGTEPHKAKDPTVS

[9] = target: T3, Bcl-2-related protein A1 (Mus musculus, UniProt Q07440); format: functional;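 also: confirmatory dose–response counterscreen on Bfl-1, used to check hits from a UBC13 polyubiquitin inhibitor campaign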
T3 sequence (Q07440 whole entry): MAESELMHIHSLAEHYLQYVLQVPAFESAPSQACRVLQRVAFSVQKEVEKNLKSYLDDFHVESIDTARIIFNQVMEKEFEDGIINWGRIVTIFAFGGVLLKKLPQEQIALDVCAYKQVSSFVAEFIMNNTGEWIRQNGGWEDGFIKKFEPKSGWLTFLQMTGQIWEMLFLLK

[10] = target: T4, Ubiquitin-conjugating enzyme E2 N (Homo sapiens, UniProt P61088); format: functional
T4 sequence (P61088 whole entry): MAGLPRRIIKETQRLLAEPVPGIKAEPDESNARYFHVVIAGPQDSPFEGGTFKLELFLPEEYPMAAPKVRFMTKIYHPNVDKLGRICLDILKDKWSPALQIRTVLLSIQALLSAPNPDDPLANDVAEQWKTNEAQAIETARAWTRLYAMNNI

[11] = target: T4, Ubiquitin-conjugating enzyme E2 N; format: functional; remark: listed apart in the source
[12] = target: T5, Short transient receptor potential channel 4 (Mus musculus, UniProt Q9QUQ5); assay: mouse TRPC4 channel activators, dose response, cell-based, HEK293 TRPC4/mu-opioid, Fluo-4 calcium (AID 434937); format: functional
T5 sequence (Q9QUQ5 whole entry): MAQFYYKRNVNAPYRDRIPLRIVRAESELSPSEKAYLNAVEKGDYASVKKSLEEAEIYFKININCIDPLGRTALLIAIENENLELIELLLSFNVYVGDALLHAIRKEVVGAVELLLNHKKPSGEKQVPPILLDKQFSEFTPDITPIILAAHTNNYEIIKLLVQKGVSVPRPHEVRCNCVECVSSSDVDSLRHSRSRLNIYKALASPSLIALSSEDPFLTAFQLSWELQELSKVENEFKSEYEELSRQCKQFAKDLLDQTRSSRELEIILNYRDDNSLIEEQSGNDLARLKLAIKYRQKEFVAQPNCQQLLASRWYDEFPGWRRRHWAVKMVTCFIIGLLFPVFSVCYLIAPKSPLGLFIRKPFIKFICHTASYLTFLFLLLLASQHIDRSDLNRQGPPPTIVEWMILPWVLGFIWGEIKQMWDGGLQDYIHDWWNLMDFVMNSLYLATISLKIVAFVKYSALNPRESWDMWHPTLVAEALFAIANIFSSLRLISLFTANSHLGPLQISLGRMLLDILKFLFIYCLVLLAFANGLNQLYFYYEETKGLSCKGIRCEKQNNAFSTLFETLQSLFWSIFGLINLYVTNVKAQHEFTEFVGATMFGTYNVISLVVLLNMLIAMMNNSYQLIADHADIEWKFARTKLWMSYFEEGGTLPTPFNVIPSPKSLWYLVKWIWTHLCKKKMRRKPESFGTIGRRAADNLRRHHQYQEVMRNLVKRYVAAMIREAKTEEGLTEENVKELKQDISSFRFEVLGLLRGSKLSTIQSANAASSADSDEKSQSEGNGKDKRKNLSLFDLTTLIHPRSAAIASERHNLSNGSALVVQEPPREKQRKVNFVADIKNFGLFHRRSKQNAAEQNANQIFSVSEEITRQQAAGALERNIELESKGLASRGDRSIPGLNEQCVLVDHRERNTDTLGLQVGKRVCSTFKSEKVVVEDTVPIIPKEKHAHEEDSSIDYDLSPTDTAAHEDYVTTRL

[13] = system: INS1; assay: beta cell apoptosis inhibitors, cytokine rescue, dose response, luminescence, retest (AID 449756); format: functional, cell-based; settings: Rattus norvegicus;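 also: cell death triggered by IL-1 beta plus TNF-alpha plus IFN-gamma mixture; protective hits raise ATP signal compared with cytokine alone wells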
[14] = target: T6, Mannose-6-phosphate isomerase (Homo sapiens, UniProt P34949); assay: PMI enzyme inhibitors, confirmation, biochemical, fluorescence intensity (AID 1535)
T6 sequence (P34949 whole entry): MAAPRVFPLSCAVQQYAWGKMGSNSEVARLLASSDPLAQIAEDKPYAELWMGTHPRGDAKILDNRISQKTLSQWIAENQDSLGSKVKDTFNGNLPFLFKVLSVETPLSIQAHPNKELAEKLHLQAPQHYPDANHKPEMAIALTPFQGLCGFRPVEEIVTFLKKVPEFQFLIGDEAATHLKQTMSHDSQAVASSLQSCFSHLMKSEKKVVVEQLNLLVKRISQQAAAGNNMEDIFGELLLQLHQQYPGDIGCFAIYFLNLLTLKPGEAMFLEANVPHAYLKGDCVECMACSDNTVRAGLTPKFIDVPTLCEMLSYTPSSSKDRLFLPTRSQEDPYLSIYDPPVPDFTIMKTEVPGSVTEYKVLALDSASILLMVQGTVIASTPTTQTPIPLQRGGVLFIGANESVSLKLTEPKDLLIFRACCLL

[15] = target: T7, Phosphomannomutase 2 (Homo sapiens, UniProt O15305); assay: Counter screen SAR assay for PMM2 inhibitors via a fluorescence intensity assay. [Related pubchem assays (depositor defined):AID1545, AID1574]
T7 sequence (O15305 whole entry): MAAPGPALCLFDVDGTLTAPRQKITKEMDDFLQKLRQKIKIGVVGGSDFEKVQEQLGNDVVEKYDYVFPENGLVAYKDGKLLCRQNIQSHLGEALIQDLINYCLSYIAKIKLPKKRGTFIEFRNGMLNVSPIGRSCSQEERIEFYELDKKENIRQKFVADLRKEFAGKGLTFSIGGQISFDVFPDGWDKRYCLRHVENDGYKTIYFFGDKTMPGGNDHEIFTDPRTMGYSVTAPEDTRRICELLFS

Sequence of Peroxisome proliferator-activated receptor gamma/Nuclear receptor coactivator 2 (P37231 whole entry): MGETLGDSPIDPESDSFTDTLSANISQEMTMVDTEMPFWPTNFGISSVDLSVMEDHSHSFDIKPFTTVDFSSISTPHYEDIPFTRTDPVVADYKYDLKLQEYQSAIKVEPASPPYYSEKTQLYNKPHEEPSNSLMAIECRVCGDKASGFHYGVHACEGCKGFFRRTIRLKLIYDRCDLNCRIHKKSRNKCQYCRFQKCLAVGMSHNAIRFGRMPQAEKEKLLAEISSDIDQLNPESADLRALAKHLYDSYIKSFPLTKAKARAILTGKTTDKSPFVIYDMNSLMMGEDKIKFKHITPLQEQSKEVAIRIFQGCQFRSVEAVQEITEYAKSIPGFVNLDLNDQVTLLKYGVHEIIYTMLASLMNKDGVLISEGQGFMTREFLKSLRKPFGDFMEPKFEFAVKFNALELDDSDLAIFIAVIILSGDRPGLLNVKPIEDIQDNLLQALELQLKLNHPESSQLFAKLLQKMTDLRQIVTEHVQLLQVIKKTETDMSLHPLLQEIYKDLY
Sequence of Peroxisome proliferator-activated receptor gamma/Nuclear receptor coactivator 2 (Q15596 whole entry, further chain): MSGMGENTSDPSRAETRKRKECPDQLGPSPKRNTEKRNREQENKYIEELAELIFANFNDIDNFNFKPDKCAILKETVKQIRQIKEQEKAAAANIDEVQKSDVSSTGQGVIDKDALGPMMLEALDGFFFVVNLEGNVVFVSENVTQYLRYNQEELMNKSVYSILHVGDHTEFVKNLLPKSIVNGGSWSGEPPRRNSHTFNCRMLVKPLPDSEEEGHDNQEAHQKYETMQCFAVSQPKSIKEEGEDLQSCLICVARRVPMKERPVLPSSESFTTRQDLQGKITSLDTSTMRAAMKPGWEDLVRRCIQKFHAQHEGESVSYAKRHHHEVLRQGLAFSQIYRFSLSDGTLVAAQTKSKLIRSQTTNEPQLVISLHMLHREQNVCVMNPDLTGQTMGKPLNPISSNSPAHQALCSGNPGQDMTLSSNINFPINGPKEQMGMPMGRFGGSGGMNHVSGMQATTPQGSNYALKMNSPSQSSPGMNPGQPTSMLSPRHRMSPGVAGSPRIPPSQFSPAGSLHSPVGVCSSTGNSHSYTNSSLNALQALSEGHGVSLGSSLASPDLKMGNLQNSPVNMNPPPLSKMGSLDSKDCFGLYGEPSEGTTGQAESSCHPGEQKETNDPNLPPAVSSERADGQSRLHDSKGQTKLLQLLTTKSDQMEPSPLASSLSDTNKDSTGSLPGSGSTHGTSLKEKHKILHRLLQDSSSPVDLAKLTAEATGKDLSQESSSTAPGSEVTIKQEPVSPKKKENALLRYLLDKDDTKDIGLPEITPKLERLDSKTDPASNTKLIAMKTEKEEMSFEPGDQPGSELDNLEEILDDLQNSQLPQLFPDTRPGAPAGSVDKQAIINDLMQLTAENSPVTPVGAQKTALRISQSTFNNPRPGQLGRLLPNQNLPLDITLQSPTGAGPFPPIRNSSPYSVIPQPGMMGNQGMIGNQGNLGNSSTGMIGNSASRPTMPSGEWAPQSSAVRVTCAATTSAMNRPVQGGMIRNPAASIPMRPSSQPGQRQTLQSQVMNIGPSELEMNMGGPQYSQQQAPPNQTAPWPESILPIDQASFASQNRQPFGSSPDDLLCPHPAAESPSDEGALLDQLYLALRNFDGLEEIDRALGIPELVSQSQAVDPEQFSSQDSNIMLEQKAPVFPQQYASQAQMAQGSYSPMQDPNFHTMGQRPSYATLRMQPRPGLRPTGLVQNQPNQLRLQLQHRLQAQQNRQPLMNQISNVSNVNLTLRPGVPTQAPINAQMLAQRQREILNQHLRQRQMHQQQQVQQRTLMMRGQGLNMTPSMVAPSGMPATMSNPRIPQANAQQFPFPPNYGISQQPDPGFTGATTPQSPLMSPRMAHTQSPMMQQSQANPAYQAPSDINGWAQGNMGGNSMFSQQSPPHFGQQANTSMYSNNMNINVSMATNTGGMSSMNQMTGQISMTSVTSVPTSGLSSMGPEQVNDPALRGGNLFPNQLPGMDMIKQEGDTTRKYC
Sequence of Peroxisome proliferator-activated receptor gamma/Nuclear receptor coactivator 1 (P37231 whole entry): as the sequence (P37231 whole entry) above
Sequence of Peroxisome proliferator-activated receptor gamma/Nuclear receptor coactivator 1 (Q15788 whole entry, further chain): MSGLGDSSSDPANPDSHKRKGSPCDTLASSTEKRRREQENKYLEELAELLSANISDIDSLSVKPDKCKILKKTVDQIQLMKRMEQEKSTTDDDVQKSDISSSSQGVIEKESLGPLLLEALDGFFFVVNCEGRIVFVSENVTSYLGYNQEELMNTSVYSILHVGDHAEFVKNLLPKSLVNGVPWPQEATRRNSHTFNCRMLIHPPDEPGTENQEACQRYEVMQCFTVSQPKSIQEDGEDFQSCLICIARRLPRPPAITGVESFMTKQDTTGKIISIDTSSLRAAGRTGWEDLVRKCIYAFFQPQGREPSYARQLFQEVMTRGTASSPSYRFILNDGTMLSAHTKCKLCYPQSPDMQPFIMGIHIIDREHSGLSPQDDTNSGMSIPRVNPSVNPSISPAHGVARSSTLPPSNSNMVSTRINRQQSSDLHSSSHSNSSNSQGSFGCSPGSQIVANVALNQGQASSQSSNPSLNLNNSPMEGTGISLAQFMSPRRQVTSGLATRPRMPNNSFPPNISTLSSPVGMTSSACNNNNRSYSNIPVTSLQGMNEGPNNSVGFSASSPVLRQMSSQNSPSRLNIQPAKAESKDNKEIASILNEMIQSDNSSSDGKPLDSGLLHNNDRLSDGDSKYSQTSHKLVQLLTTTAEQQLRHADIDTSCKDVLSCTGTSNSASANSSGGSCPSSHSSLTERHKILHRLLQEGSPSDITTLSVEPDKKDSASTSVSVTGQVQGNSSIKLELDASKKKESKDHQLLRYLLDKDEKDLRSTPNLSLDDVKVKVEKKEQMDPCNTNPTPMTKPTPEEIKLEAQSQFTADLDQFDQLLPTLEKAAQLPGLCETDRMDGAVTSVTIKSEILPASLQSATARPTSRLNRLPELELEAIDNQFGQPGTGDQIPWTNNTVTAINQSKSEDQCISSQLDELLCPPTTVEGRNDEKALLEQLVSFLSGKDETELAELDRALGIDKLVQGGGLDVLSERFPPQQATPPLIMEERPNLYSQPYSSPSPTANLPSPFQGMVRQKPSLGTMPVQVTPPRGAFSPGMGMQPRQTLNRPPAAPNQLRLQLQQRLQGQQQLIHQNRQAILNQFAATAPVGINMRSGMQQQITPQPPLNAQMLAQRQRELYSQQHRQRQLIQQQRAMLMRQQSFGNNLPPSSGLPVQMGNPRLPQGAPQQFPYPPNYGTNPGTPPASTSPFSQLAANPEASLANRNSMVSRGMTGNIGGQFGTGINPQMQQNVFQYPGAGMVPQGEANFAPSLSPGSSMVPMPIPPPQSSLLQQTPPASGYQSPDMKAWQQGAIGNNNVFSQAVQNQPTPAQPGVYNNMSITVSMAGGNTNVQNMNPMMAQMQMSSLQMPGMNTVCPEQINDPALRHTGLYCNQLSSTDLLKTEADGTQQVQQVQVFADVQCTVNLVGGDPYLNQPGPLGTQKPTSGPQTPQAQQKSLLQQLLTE
Sequence of ATP-dependent molecular chaperone HSP82 (C4YTQ8 whole entry): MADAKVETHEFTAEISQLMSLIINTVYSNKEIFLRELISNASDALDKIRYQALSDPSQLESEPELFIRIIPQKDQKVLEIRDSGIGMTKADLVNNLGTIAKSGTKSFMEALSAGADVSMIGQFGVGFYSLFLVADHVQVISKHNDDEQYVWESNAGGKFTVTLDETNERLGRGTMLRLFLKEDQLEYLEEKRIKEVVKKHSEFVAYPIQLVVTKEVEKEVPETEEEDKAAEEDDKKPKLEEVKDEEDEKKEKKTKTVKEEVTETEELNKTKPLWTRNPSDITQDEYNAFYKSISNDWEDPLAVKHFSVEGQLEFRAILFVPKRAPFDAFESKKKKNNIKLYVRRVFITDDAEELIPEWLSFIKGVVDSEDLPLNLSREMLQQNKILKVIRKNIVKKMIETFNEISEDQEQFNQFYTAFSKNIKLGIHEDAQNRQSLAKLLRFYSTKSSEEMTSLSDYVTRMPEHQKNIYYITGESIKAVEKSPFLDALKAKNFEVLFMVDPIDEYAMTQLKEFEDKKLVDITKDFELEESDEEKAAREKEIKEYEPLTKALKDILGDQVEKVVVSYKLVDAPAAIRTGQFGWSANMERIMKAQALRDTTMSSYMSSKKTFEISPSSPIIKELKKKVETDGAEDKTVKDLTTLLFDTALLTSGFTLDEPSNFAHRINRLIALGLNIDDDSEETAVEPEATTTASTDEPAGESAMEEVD

EC50 [5]	EC50 [6]	EC50 [7]	IC50 [9]	IC50 [10]	IC50 [11]	SMILES	also measured
						O=[N+]([O-])c1ccc(O)c(P(=O)(c2ccccc2)c2ccccc2)c1	EC50 [1]: > 180 µM (inactive); EC50 [2]: 0.698 µM (active); EC50 [3]: > 150 µM (inactive); EC50 [4]: > 150 µM (inactive)
2.28 µM (active)	21.7 µM (not active)	2.47 µM (active)				CC(C)OC(=O)CNc1nnc(S)nc1O	
			> 20 µM (inactive)	8.3 µM (active)	10.2 µM (active)	CCCC(C(=O)NC(C)(C)C)N(C(=O)c1snc(C(N)=O)c1N)c1ccc2c(c1)OCCO2 (stereo not given)	EC50 [8]: 1.58 µM (active)
27.6 µM (inactive)	> 79.4 µM (not active)	> 26.5 µM (not active)				NC(=O)CSc1ncnc2c1oc1ccccc12	
> 79.4 µM (inactive)	> 79.4 µM (not active)	237 µM (not active)				CCSc1nnc(-c2ccccc2SC)o1	
8.31 µM (active)	16.1 µM (not active)	11.8 µM (not active)				Fc1ccc(-c2nnsc2Sc2ccccn2)cc1	
			> 20 µM (inactive)	3.87 µM (active)	1.89 µM (active)	O=C(NCC1CCN(Cc2cccc(Cl)c2)CC1)C1CCCN(c2ncnc3c2nc2n3CCCCC2)C1 (stereo not given)	
						Cc1ccncc1/N=c1\ssnc1Cl	IC50 [14]: 34 µM (active); IC50 [15]: > 100 µM (inactive)

SMILES	EC50 [5]	EC50 [6]	EC50 [7]	IC50 [9]	IC50 [10]	IC50 [11]	also measured
CN(C)CCCN(C(=O)c1ccc(S(=O)(=O)N(C)Cc2ccccc2)cc1)c1nc2cc3c(cc2s1)OCO3				> 20 µM (inactive)	11.5 µM (active)	5.54 µM (active)	EC50 [12]: 9.44 µM (active); AC50 [13]: > 120 µM (inactive)
